From patent US20250057990A1, “TISSUE-SPECIFIC MANGANESE BASED MRI CONTRAST AGENTS” (CASE WESTERN RESERVE UNIVERSITY, priority 2021, published 2025)
Several values for one entry are separate records, joined by “and”; a condition that tells them apart may be missing. Identical values can stand only once. Like-named read-outs stand apart in the source and are kept apart here.

How the values were obtained:
[1] = from literature, cited from earlier work
[2] = from literature, cited from earlier work; remark: listed apart in the source
[3] = in vivo; cited from earlier work
[4] = Relaxivity measurements of Mn(EOB-PC2A) in DPBS; assay type: physicochemical
Experimental: (§1) Solutions of Mn(EOB-PC2A) were prepared in DPBS or saline containing 4.5% human serum albumin. The T1 and T2 relaxation times at 1.5T were measured using a Bruker Minispec Relaxometer ([…], 37° C.; Bruker, Billerica, MA, USA). The T1 relaxation times were also measured at 3T using an MRS3000 3T small animal scanner from MR solutions (MR Solutions, Surrey, UK) with a T1 mapping sequence (TR=10 ms, TE=4 ms, T1=50 ms, FOV=40×40 mm, slice thickness=2 mm, number of slices=1, Nav=1, matrix=256×128, flip angle=8°). The r1 and r2 relaxivities were calculated as the slope of the 1/T1 and 1/T2 vs. Mn concentration, respectively.

HepG2 hepatoma cells [5] = assay: Cell viability analysis (CCK8) in HepG2 cells; assay type: cell-based; details: 48 hours, physiologically relevant concentrations
Experimental: (§2) DU145 cells were purchased from American Type Culture Collection (ATCC, Manassas, VA, USA). HepG2 cells were kindly gifted by Dr. Zhenghong Lee at Case Western Reserve University (CWRU, Cleveland, OH, USA). All cell lines were cultured in Dulbecco's Modified Eagle's Medium (DMEM, Gibco, Amarillo, TX, USA) supplemented with 1% penicillin-streptomycin (Gibco) and 10% fetal bovine serum (Gibco) and incubated at 37° C. and 5% CO2.
(§3) Cells in culture were trypsonized and counted. In a 96-well plate, cells were seeded at 5,000 cells per well and incubated for 1 day to adhere and proliferate. Cells were then incubated with increasing concentrations of the liver-targeted MBCA for 48 hours. To measure cell viability, a CCK8 assay was performed according to the manufacturer's instructions (Dojindo Molecular Technologies, Inc., Kumamoto, JP). Percent cell viability was calculated as the signal intensity of the treated well divided by the signal intensity of the untreated control wells after accounting for background signal.

C57BL6 mice [6] = assay: 3D FLASH whole-body MRI; assay type: in vivo; parameters: key to Delta SNR: change in SNR, where SNR = s_tissue/σ_noise; details: for Delta SNR: 0.060 mmol/kg
Experimental: (§4) All animal and imaging procedures were performed according to an approved Institutional Animal Care and Use Committee protocol. Male C57BL6 mice were purchased from Jackson Labs (Bar Harbor, ME, USA), housed in an animal facility.
(§5) All imaging experiments were performed using the MRS3000 3T small animal scanner. Mice (n=5) were anesthetized with 2% isoflurane, the tail vein was cannulized with a catheter, followed by transferal to the heated mouse bed of the MRI scanner. Mice were monitored with a respiration monitor while in the scanner. Before and at 15 and 30 minutes after administration of 60 μmol/kg Mn(EOB-PC2A), mice were imaged with a T1w axial fast spin-echo sequence with respiratory gating (TR=305 ms, TE=11 ms, FOV=40×40 mm, slice thickness=1 mm, number of slices=15, Nav=4, matrix=256×248) and a 3D FLASH sequence (TR=16 ms, […], T1=1000 ms, FOV=70×35 mm, slice thickness=35 mm, number of slices=1, Nav=3, matrix=256×128, flip angle=25°). Mice underwent an additional T1w axial spin-echo and 3D FLASH acquisitions at 24 hours post-injection.
(§6) MR images were exported in DICOM format, and processed and analyzed using FIJI software (https://imagej.net/software/fiji/). The signal-to-noise ratio [stissue/σnoise] and contrast-to-noise ratio [(stissue−smuscle)/σnoise] were calculated for the relevant tissues of each mouse at every time point. Subtraction images were produced for the 3D FLASH images by first dividing the pixel values of the images of each acquisition by the scaling factor assigned by the MRS software, and then subtracting the corresponding pre-contrast baseline images from the post-contrast images. Maximum intensity projections and 3-dimensional projections were produced for the raw and subtraction 3D FLASH images in FIJI using the “Z-project” function and the “3D-project” function with interpolation, respectively.

[7] = system: DU145 prostate cancer cells; assay: Cell viability analysis (CCK8) in DU145 cells; assay type: cell-based; details: 48 hours, physiologically relevant concentrations
Experimental: as §2, §3

C57BL6 mice [8] = assay: T1-weighted axial fast spin-echo MRI of the liver; assay type: in vivo; details: 0.060 mmol/kg i.v.
Experimental: as §4, §5, §6

HepG2 hepatoma cells [9] = assay: Cell uptake analysis (ICP-OES manganese content); assay type: cell-based; details: 2 mM, 2 hours
Experimental: Cells were plated in a 6-well plate and incubated for 1 day to adhere and proliferate. Cells were then incubated for 2 hours with 2 mM Mn(EOB-PC2A), after which they were washed three times with DPBS, trypsonized, and pelleted. Cells were resuspended in 250 μL of 75% HNO3 for 48 hours for dissolution, after which 4.75 mL distilled water was added. The samples were centrifuged at 4,000 rpm for 30 minutes to pellet any non-dissolved components and the supernatant was collected. Manganese content in the cell solution was quantified by inductively coupled plasma optical emission spectroscopy (ICP-OES 730, Agilent Technologies, Santa Clara, CA, USA).

[10] = Relaxivity measurements of Mn(EOB-PC2A) in saline containing 4.5% human serum albumin; assay type: physicochemical; details: 4.5% human serum albumin in saline, 1.5T, 37° C.
Experimental: as §1

[11] = blood plasma (human plasma), 1.5 T
[12] = 15 minutes post-injection, relative to pre-contrast baseline
[13] = 30 minutes post-injection, relative to pre-contrast baseline
[14] = 24 hours post-injection, relative to pre-contrast baseline

Question: Which “r1 relaxivity Plasma/Serum” value [1, 11] does the source give for `O=C([O-])CN(CCN(CC(=O)[O-])CC(=O)[O-])CCN(CC(=O)[O-])C(COCc1ccccc1)C(=O)[O-].[Gd+3].[H+].[H+]` (centres unmarked) [Gadobenate, gadobenate] here?
Answer: 6.3 mM⁻¹ s⁻¹

Question: What about the “r1 relaxivity Water/DPBS” value ([2]; 1.5 T) of the same compound?
Answer: 4.0 mM⁻¹ s⁻¹

Question: With mangafodipir as the compound, how does the “r1 relaxivity Plasma/Serum” value [1, 11] read?
Answer: 3.6 mM⁻¹ s⁻¹

Question: What about the “r1 relaxivity Water/DPBS” value ([2]; 1.5 T) of the same compound?
Answer: 1.6 mM⁻¹ s⁻¹

Question: With `CCOc1ccc(C[C@@H](CN(CCN(CC(=O)[O-])CC(=O)[O-])CC(=O)[O-])N(CC(=O)[O-])CC(=O)[O-])cc1.[Gd+3].[H+].[H+]` [Gadoxetate, gadoxetate] as the compound, how does the “r1 relaxivity Plasma/Serum” value [1, 11] read?
Answer: 6.9 mM⁻¹ s⁻¹

Question: And the “time of peak enhancement after administration” value [3]?
Answer: around 20 minutes

Question: And the “r1 relaxivity Water/DPBS” value ([2]; 1.5 T)?
Answer: 4.7 mM⁻¹ s⁻¹

Question: Which results are given for `O=C([O-])CN1CCNCc2cccc(n2)CN(CC(=O)[O-])CC1.[Mn+2]` [Mn-3,6-PC2A]?
Answer: r1 relaxivity Plasma/Serum ([1]; Seronorm, 1.41 T): 3.0 mM⁻¹ s⁻¹; r1 relaxivity Water/DPBS ([2]; water, 1.41 T): 2.4 mM⁻¹ s⁻¹

Question: Which “r1 relaxivity Plasma/Serum” value ([1]; Seronorm, 1.41 T) does the source give for `O=C([O-])CN1CCNCCN(CC(=O)[O-])Cc2cccc(n2)C1.[Mn+2]` [Mn-3,9-PC2A] here?
Answer: 3.3 mM⁻¹ s⁻¹

Question: What about the “r1 relaxivity Water/DPBS” value ([2]; water, 1.41 T) of the same compound?
Answer: 2.2 mM⁻¹ s⁻¹

Question: Which “r1 relaxivity Water/DPBS” value ([4]; 1.5T, 37° C.) does the source give for Mn(EOB-PC2A) here?
Answer: 2.83 mM⁻¹ s⁻¹ and 2.8 mM⁻¹ s⁻¹

Question: And the r1 relaxivity ([4]; 3 T)?
Answer: 2.61 mM⁻¹ s⁻¹

Question: What about the cytotoxicity (HepG2 hepatoma cells [5]) of the same compound?
Answer: no cytotoxicity

Question: And the “Delta SNR” value (C57BL6 mice [6]; Bladder, 15 minutes post-injection)?
Answer: 157.07 ± 39.02

Question: And the “Delta SNR” value (C57BL6 mice [6]; Bladder, 30 minutes post-injection)?
Answer: 199.96 ± 25.86

Question: What about the “Delta SNR” value (C57BL6 mice [6]; Bladder, 24 hours post-injection) of the same compound?
Answer: −2.58 ± 5.42

Question: And the “Delta SNR” value (C57BL6 mice [6]; Heart, 15 minutes post-injection)?
Answer: −0.04 ± 5.85

Question: What about the “Delta SNR” value (C57BL6 mice [6]; Heart, 30 minutes post-injection) of the same compound?
Answer: −2.28 ± 7.11

Question: And the “Delta SNR” value (C57BL6 mice [6]; Heart, 24 hours post-injection)?
Answer: 5.73 ± 16.25

Question: And the “Delta SNR” value (C57BL6 mice [6]; Kidney, 15 minutes post-injection)?
Answer: 27.74 ± 7.66

Question: And the “Delta SNR” value (C57BL6 mice [6]; Kidney, 30 minutes post-injection)?
Answer: 21.33 ± 8.28

Question: What about the “Delta SNR” value (C57BL6 mice [6]; Kidney, 24 hours post-injection) of the same compound?
Answer: 3.87 ± 5.62

Question: And the “Delta SNR” value (C57BL6 mice [6]; Liver, 15 minutes post-injection)?
Answer: 51.48 ± 17.20

Question: And the “Delta SNR” value (C57BL6 mice [6]; Liver, 30 minutes post-injection)?
Answer: 29.19 ± 14.28

Question: What about the “Delta SNR” value (C57BL6 mice [6]; Liver, 24 hours post-injection) of the same compound?
Answer: 1.36 ± 6.44

Question: What about the “Delta SNR” value (C57BL6 mice [6]; Lung, 15 minutes post-injection) of the same compound?
Answer: −0.27 ± 0.44

Question: What about the “Delta SNR” value (C57BL6 mice [6]; Lung, 30 minutes post-injection) of the same compound?
Answer: −0.41 ± 0.31

Question: What about the “Delta SNR” value (C57BL6 mice [6]; Lung, 24 hours post-injection) of the same compound?
Answer: −0.43 ± 0.71

Question: And the “Delta SNR” value (C57BL6 mice [6]; Muscle, 15 minutes post-injection)?
Answer: −3.63 ± 3.21

Question: And the “Delta SNR” value (C57BL6 mice [6]; Muscle, 30 minutes post-injection)?
Answer: −4.07 ± 5.11

Question: And the “Delta SNR” value (C57BL6 mice [6]; Muscle, 24 hours post-injection)?
Answer: −6.62 ± 10.13

Question: And the biliary elimination (C57BL6 mice [6]; enhancement in gallbladder, particularly 30 minutes post-injection)?
Answer: eliminated via biliary excretion

Question: And the “renal elimination of unbound agent” value (C57BL6 mice [6]; signal enhancement in kidneys and urinary bladder, 15 and 30 minutes post-injection)?
Answer: rapidly excreted via renal filtration

Question: And the cytotoxicity [7]?
Answer: no cytotoxicity

Question: And the “normalized CNR of the liver” value (C57BL6 mice [8]; [12])?
Answer: 3.20

Question: And the “normalized SNR of the liver” value (C57BL6 mice [8]; [12])?
Answer: 1.41

Question: What about the “normalized CNR of the liver” value (C57BL6 mice [8]; [13]) of the same compound?
Answer: 3.12

Question: What about the “normalized SNR of the liver” value (C57BL6 mice [8]; [13]) of the same compound?
Answer: 1.42

Question: What about the “liver CNR” value (C57BL6 mice [8]; [14]) of the same compound?
Answer: 1.16

Question: What about the “liver SNR” value (C57BL6 mice [8]; [14]) of the same compound?
Answer: 0.86

Question: And the “washout time after injection” value (C57BL6 mice [8]; liver MR signal returns to pre-contrast baseline)?
Answer: ≤ 24 h

Question: What about the “intracellular concentration of Mn(II) relative to untreated cells” value (HepG2 hepatoma cells [9]) of the same compound?
Answer: 17 times

Question: And the “r1 relaxivity Plasma/Serum” value [10]?
Answer: 5.85 mM⁻¹ s⁻¹ and 5.9 mM⁻¹ s⁻¹
